Key:
[1] = system: SH-SY5Y neuroblastoma cell line; assay: Aβ induced AD cell model, cell viability by CCK-8; type: cell-based; settings: 20 μM Aβ(1-40), 24 h; L-NIBC 20 ppm; particles 0.01-20 ppm
Procedure: The cell viability was used as an index in the experiment of this embodiment. […] The cells used in the experiment were SH-SY5Y neuroblastoma cell line. […] Specific method:
1) SH-sy5y cells (cells had passed to the sixth generation) in logarithmic growth phase were diluted with complete medium (MEM+10% FBS+1% penicillin−streptomycin) to get a cell suspension in a density of 5×10^4/mL. The suspension was inoculated 200 μL per well into a 96-well plate, and cultivated in an incubator with 5% CO2 at 37° C. A sample was added when the cells attached to the wells.
2) 100 μL ligand-modified AuCs samples or ligand-modified gold nanoparticles samples, at different particle sizes and at concentrations of 0.04 ppm, 0.4 ppm, 4 ppm, 20 ppm, 40 ppm and 80 ppm respectively, which were dissolved by maintenance medium (MEM+2% FBS+1% penicillin-streptomycin) were added into the incubated suspension obtained from Step 1). After incubating in the incubator for 2 h, 100 μL 80 μM Aβ(1-40) was added, and then the mixture was incubated in the incubator for 24 h. […] The culture medium was removed, maintenance medium (MEM) containing 10% CCK-8 at 100 μL/well was added and was incubated for 4 h, the absorbance of each well at 450 nm was measured to reflect the prevention and treatment effects of ligand-modified AuCs on Aβ(1-40) lesion.

[2] = molecular target: T1, Aβ(1-40) (Homo sapiens, UniProt P05067); assay: AFM topography of Aβ(1-40) after 48 h coincubation; type: biochemical; settings: coincubated for 48 h
T1 construct: Freeze-dried powder of amyloid polypeptide Aβ(1-40) (Invitrogen Corp.); purchased Invitrogen Corp
Procedure: Panel A is the AFM topography after Aβ(1-40) was incubated alone for 48 h. Panel B is an AFM topography after Aβ(1-40) was coincubated with L-NIBC for 48 h. Panel C and panel D are AFM topographies after Aβ(1-40) was coincubated with gold nanoparticles with an average particle size of 6.0 nm and 3.6 nm respectively (modified with L-NIBC) for 48 h. And […] is an AFM topography after Aβ(1-40) was coincubated with AuCs in an average particle size of 1.8 nm (modified with L-NIBC) for 48 h.

[3] = molecular target: T2, α-syn (Homo sapiens, UniProt P37840); assay: In vitro α-syn aggregation kinetics, ThT fluorescent labeling method; type: biochemical; settings: L-NIBC 1.0 and 10.0 ppm; 35 μM α-syn, 37° C.
T2 construct: purchased Bachem Corp
Text: Thioflavin T (abbreviation: ThT) is a dye for dyeing amyloid fibers specifically. […] When it encounters amyloid polypeptide or protein with a fiber structure, it will immediately couple with the amyloid polypeptides or proteins and its fluorescence intensity will increase exponentially. For this reason, ThT is widely used as markers to monitor amyloidosis of peptides or proteins. This embodiment utilizes ThT fluorescent labeling method to monitor the kinetics process of fibrosis aggregation of α-syn with the existence of AuCs. The specific experiment method was as follows:
Pretreatment of α-syn monomers: Freeze-dried powder (Bachem Corp.) of α-syn was dissolved in HFIP to obtain a 1 g/L α-syn solution. The solution was incubated at room temperature for 2-4 h after sealing, then blowed to dry HFIP by high-purity nitrogen in a fume hood. […]
Sample preparation and detection: Ligand-modified AuCs in different concentrations listed in Table 1 were added to 35 μM α-syn PBS solutions respectively, and incubated continuously in a 96-well plate at 37° C., by ThT fluorescent labeling method, and were monitored the fluorescence intensity by microplate reader once every 10 minutes. The kinetic process of α-syn aggregation was characterized through the change of fluorescence intensity of ThT. […]

[4] = molecular target: T1, Aβ(1-40); assay: In vitro Aβ(1-40) aggregation kinetics, ThT fluorescent labeling method; type: biochemical; settings: L-NIBC 1.0 and 10.0 ppm; 20 μM Aβ(1-40), 37° C.
Text: Thioflavin T (abbreviation: ThT) is a dye specifically for dyeing amyloid fibers. […] When it encounters amyloid polypeptides or proteins with a fiber structure, it will immediately couple with the amyloid polypeptides or proteins and its fluorescence intensity will increase exponentially. Just because of this property, ThT is widely used as a marker to monitor amyloidosis of peptides or proteins. The fibrosis process of Aβ(1-40) is also a nucleation-controlled polymerization process. Therefore, the growth curve of Aβ(1-40) fiber measured by ThT fluorescent labeling method is mainly divided into three stages: Initial stage, growth stage and platform stage. […] All the Aβ(1-40) PBS solutions for the experiments were prepared freshly. […] The samples were incubated continuously in a 96-well plate at 37° C. by ThT fluorescent labeling method, and monitored the fluorescence intensity by microplate reader once every 10 minutes.

T1 sequence (P05067 672-711 limits assumed): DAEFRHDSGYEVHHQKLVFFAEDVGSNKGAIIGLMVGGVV

Aβ(1-40) fibers in AFM topography [2]: no obvious effect
effect on kinetics of α-syn aggregation [3]: did not have an obvious effect
effect on Aβ(1-40) amyloidosis kinetics [4]: no obvious effect
SMILES: CC(C)C(=O)N[C@@H](CS)C(=O)O [L-NIBC, N-isobutyryl-L-cysteine]
effect on cell viability in Aβ-induced AD cell model [1]: did not improve cell viability
